# Legend:
# Crabgrass sp. = assay: Ex 5/7 greenhouse spray, bleaching/injury/density ratings; type: in vivo
# Procedure: (§1) Containers were watered as needed based on species and water usage. The greenhouse was heated to keep temperatures above 50° F. (10° C.) and ventilated as needed to keep temperatures below 100° F. (38° C.). Typical daytime temperatures in the greenhouse were 80-90° F. (27-32° C.) and nighttime temperatures were between 50-60° F. (10-16° C.). The soil employed was Promix BX potting soil. Overall moisture conditions were normal and the closest weather station was on-site. Conditions and equipment employed in this Example are tabulated below in Tables 5-1 and 5-2.
# (§2) All containers were moved outdoors from the greenhouse and arranged in blocks by treatment for the herbicide applications. A single spray application was applied to each block containing four repetitions of each species for each treatment. Plants were then immediately returned to the greenhouse and irrigated with approximately ¼″ water 1-3 hrs after treatment with a hose end sprayer. Only the Poa plants were trimmed with scissors two days prior to treatment at a height of approximately 3 inches.
# Transplanted tillering Kentucky Bluegrass was 5 to 6 months old, transplanted Poa annua was 5 to 6 months old. Tall fescue was seeded into the crabgrass pots. St. Augustine plants (Floratam and Saphire) were shipped from Port St. Lucie, Fla. Only two replicates of Saphire St. Augustine grass were used due to plant availability.
# Referring to FIGS. 2A-B, 3A-C, 4A-C, and 5A-D, all ratings of injury or bleaching are based on a scale from 1 to 9. […] Any bleaching measurement 4 and above was considered unacceptable for desirable turf species. In injury measurements, 1 indicates no injury while 9 indicates a dead plant. Any injury measurement 4 and above was considered unacceptable for desirable turf species). Density correlates with percent cover where 1 indicates no grass while 9 indicates a full pot.
# Replications employed include 4, Untreated treatments: 1, Design: Randomized Complete Block, Treatment units: US standard, Treated plot size Width: 4 feet, Treated plot size Length: 4 feet, Application volume: 50 gal/ac, Mix size: 0.5562 liters, Mix overage: 100%, Format definitions: G-All7.DEF, G-All7.FRM.
# In evaluating synergism, the data from Example 5 above were converted to % of control. This was done based on the data provided on a 1-9 scale detailed in Example 5. Expected values were computed from the % of control data by the formula for expected control=[…], where A is the % of control value for herbicide A alone and B is the % of control value for herbicide B alone.
# [1] = system: Kentucky Bluegrass Seedling; conditions: in vivo
# Procedure: as §1, §2
# […] Tall fescue was seeded into the crabgrass pots. St. Augustine plants (Floratam and Saphire) were shipped from Port St. Lucie, Fla. Only two replicates of Saphire St. Augustine grass were used due to plant availability.
# Referring to FIGS. 2A-B, 3A-C, 4A-C, and 5A-D, all ratings of injury or bleaching are based on a scale from 1 to 9. […]
# [2] = rating 1, 0.022 lbs ai/A (0.5 oz/A)
# [3] = rating 1, 0.13 lbs ai/A (3 oz/A)
# [4] = rating 2, 0.022 lbs ai/A (0.5 oz/A)
# [5] = rating 2, 0.13 lbs ai/A (3 oz/A)
# [6] = rating 3, 0.022 lbs ai/A (0.5 oz/A)
# [7] = rating 3, 0.13 lbs ai/A (3 oz/A)
# [8] = rating 4, 0.022 lbs ai/A (0.5 oz/A)
# [9] = rating 4, 0.13 lbs ai/A (3 oz/A)
# [10] = rating 5, 0.022 lbs ai/A (0.5 oz/A)
# [11] = rating 5, 0.13 lbs ai/A (3 oz/A)
# [12] = rating 6, 0.022 lbs ai/A (0.5 oz/A)
# [13] = rating 6, 0.13 lbs ai/A (3 oz/A)
smiles,measurement,setting,value
"CC(C)c1nn(C(=O)NC(C)(C)C)c(=O)n1N [Amicarbazone, 4-amino-5-isopropyl-2-(tert-butyl-aminocarbonyl)-2,4-dihydro-3H-1,2,4-triazol-3-one]",Crabgrass bleaching,Crabgrass sp.; [2],97
same,Crabgrass cover,Crabgrass sp.; [2],88
same,Crabgrass injury,Crabgrass sp.; [2],94
same,Crabgrass bleaching,Crabgrass sp.; [3],100
same,Crabgrass cover,Crabgrass sp.; [3],67
same,Crabgrass injury,Crabgrass sp.; [3],100
same,Crabgrass bleaching,Crabgrass sp.; [4],100
same,Crabgrass cover,Crabgrass sp.; [4],94
same,Crabgrass injury,Crabgrass sp.; [4],100
same,Crabgrass bleaching,Crabgrass sp.; [5],100
same,Crabgrass cover,Crabgrass sp.; [5],67
same,Crabgrass injury,Crabgrass sp.; [5],100
same,Crabgrass bleaching,Crabgrass sp.; [6],100
same,Crabgrass cover,Crabgrass sp.; [6],100
same,Crabgrass injury,Crabgrass sp.; [6],100
same,Crabgrass bleaching,Crabgrass sp.; [7],100
same,Crabgrass cover,Crabgrass sp.; [7],72
same,Crabgrass injury,Crabgrass sp.; [7],100
same,Crabgrass bleaching,Crabgrass sp.; [8],100
same,Crabgrass injury,Crabgrass sp.; [8],97
same,Crabgrass bleaching,Crabgrass sp.; [9],100
same,Crabgrass injury,Crabgrass sp.; [9],94
same,Crabgrass bleaching,Crabgrass sp.; [10],97
same,Crabgrass injury,Crabgrass sp.; [10],97
same,Crabgrass bleaching,Crabgrass sp.; [11],100
same,Crabgrass injury,Crabgrass sp.; [11],94
same,Crabgrass bleaching,Crabgrass sp.; [12],97
same,Crabgrass injury,Crabgrass sp.; [12],94
same,Crabgrass bleaching,Crabgrass sp.; [13],100
same,Crabgrass injury,Crabgrass sp.; [13],94
same,Crabgrass bleaching,"Crabgrass sp.; rating 7, 0.022 lbs ai/A (0.5 oz/A)",100
same,Crabgrass bleaching,"Crabgrass sp.; rating 7, 0.13 lbs ai/A (3 oz/A)",100
same,Crabgrass bleaching,"Crabgrass sp.; rating 8, 0.022 lbs ai/A (0.5 oz/A)",100
same,Crabgrass bleaching,"Crabgrass sp.; rating 8, 0.13 lbs ai/A (3 oz/A)",100
same,injury to seedlings,[1],injured Kentucky Bluegrass seedlings

# From US11432549B2, “Carbamoyl triazolinone based herbicide combinations and method of use” (Arysta LifeScience Corporation, priority 2009, dated 2022)
